Like-named read-outs stand apart in the source and are kept apart here.
Key:
hNAMPT protein = hNAMPT protein (Homo sapiens (Human), UniProt P43490); assay: NAMPT enzyme assay (TR-FRET/HTRF, BodiPY ligand, anti 6His-Tb); type: binding; conditions: for IC50: read-out: IC50; for inhibition at 1 µM: read-out: Percent Inhibition
In short: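 TR-FRET binding assay in which His-tagged human NAMPT with anti-6His-Tb is displaced by compound from a BodiPY ligand, incubated 1 h at rt in the dark. Excitation was at 320 nm, with the 520/486 nm emission ratio read. IC50 was fitted from inhibition relative to DMSO controls.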

PC3 cells = assay: PC3 growth inhibition (Cell-titer glo, 72 hours); type: cell-based; conditions: Homo sapiens, PC-3, PC3 cells, 72 hours, Cell-titer glo, read-out: Percent Inhibition (PC3 growth inhibition); for inhibition at 1 µM: compound concentration 1 μM; for inhibition at 1.667 µM: compound concentration 1.667 μM
In short: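 PC3 cells in RPMI1640 seeded overnight at 37 °C, 5% CO2, then exposed to compound diluted in AIM serum-free medium for 72 h. Viability by CellTiter-Glo luminescence vs DMSO controls; single-concentration % remaining viability (1 μM or 1.667 μM), or GI50/LD50 from curves.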

[1] = NAMPT inhibition at compound concentration 1 μM
[2] = NAMPT inhibition, IC50 range class

hNAMPT protein, sequence (P43490 whole entry): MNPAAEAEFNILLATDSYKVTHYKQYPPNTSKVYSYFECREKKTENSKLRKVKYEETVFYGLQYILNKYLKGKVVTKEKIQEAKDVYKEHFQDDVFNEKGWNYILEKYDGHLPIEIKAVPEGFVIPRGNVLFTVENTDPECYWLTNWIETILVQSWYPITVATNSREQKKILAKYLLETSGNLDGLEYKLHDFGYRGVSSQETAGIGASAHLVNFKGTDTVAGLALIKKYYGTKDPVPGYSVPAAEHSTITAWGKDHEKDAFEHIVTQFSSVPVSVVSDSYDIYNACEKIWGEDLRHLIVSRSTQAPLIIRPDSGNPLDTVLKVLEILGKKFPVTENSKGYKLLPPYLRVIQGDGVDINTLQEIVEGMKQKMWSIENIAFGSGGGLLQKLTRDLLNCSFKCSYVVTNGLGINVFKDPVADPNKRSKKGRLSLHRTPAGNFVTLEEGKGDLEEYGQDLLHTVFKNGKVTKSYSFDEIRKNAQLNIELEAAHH

| Compound | IC50 (hNAMPT protein; NAMPT IC50 range class) | inhibition at 1 µM (hNAMPT protein; compound concentration 1 μM) | inhibition at 1 µM (PC3 cells) | inhibition at 1 µM (hNAMPT protein; [1]) | IC50 (hNAMPT protein; [2]) | inhibition at 1.667 µM (PC3 cells) | inhibition at 1 µM (hNAMPT protein) |
| --- | --- | --- | --- | --- | --- | --- | --- |
| O=C(NCCCn1ccnc1)c1ccc2nc(N3CCC(n4c(=O)[nH]c5ccccc54)CC3)c(-c3ccccc3)nc2c1 [Compound I-280, N-[3-(1H-imidazol-1-yl)propyl]-2-[4-(2-oxo-2,3-dihydro-1H-benzimidazol-1-yl)piperidin-1-yl]-3-phenylquinoxaline-6-carboxamide] | 0.1 to 0.5 µM | 83% | -6% | – | – | – | – |
| O=C(NCCCn1ccnc1)c1ccc2nc(-c3ccc4[nH]ccc4c3)c(-c3ccccc3)nc2c1 [Compound I-149, N-[3-(1H-imidazol-1-yl)propyl]-2-(1H-indol-5-yl)-3-phenylquinoxaline-6-carboxamide] | 0.1 to 0.5 µM | 86% | -8% | – | – | – | – |
| O=C(NCc1cn2cccnc2n1)c1ccc2nc(-c3ccc(F)cc3)c(-c3ccc(F)cc3)nc2c1 [Compound I-408, 2,3-bis(4-fluorophenyl)-N-(imidazo[1,2-a]pyrimidin-2-ylmethyl)quinoxaline-6-carboxamide] | – | – | – | 85% | 0.1 to 0.5 µM | > 99% | – |
| O=C(NCCCn1ccnc1)c1ccc2nc(-c3ccc4nccn4c3)c(-c3ccccc3)nc2c1 [Compound I-258, N-[3-(1H-imidazol-1-yl)propyl]-2-(imidazo[1,2-a]pyridin-6-yl)-3-phenylquinoxaline-6-carboxamide] | 0.1 to 0.5 µM | 67% | -8% | – | – | – | – |
| CC(C)c1nc2ccc(C(=O)NCCCc3ncc[nH]3)cc2nc1-c1ccc(F)cc1 [Compound I-444, 3-(4-fluorophenyl)-N-[3-(1H-imidazol-2-yl)propyl]-2-isopropylquinoxaline-6-carboxamide] | – | – | – | 77% | 0.1 to 0.5 µM | 1% | – |
| O=C(NCCCc1ncc[nH]1)c1ccc2nc(-c3ccc(F)cc3)c(-c3ccc(F)cc3)nc2c1 [Compound I-178, 2,3-bis(4-fluorophenyl)-N-[3-(1H-imidazol-2-yl)propyl]quinoxaline-6-carboxamide] | < 0.1 µM | 97% | – | – | – | 2% | – |
| O=C(NCCn1cccn1)c1ccc2nc(-c3ccc(F)cc3)c(-c3ccc(F)cc3)nc2c1 [Compound I-83, 2,3-bis(4-fluorophenyl)-N-[2-(1H-pyrazol-1-yl)ethyl]quinoxaline-6-carboxamide] | 2 to 10 µM | 33% | 96% | – | – | – | – |
| O=C(NCCc1ccccn1)c1ccc2nc(N3CCC(C4CCNCC4)CC3)c(-c3ccccc3)nc2c1 [Compound I-130, 2-(4,4′-Bipiperidin-1-yl)-3-phenyl-N-[2-(pyridin-2-yl)ethyl]quinoxaline-6-carboxamide] | 0.1 to 0.5 µM | – | 93% | – | – | – | 81% |
| O=C(NCCc1ccc2[nH]cnc2c1)c1ccc2nc(-c3ccc(F)cc3)c(-c3ccc(F)cc3)nc2c1 [Compound I-43, N-[2-(1H-benzimidazol-5-yl)ethyl]-2,3-bis(4-fluorophenyl)quinoxaline-6-carboxamide] | 2 to 10 µM | 23% | 16% | – | – | – | – |
| O=C(NCCCc1ncc[nH]1)c1ccc2nc(-n3ncc4ccccc43)c(-c3ccc(F)cc3)nc2c1 [Compound I-305, 3-(4-fluorophenyl)-N-[3-(1H-imidazol-2-yl)propyl]-2-(1H-indazol-1-yl)quinoxaline-6-carboxamide] | < 0.1 µM | 93% | – | – | – | 3% | – |
| CS(=O)(=O)Nc1cccc(-c2nc3ccc(C(=O)NCCCn4ccnc4)cc3nc2-c2ccccc2)c1 [Compound I-290, N-[3-(1H-imidazol-1-yl)propyl]-2-{3-[(methylsulfonyl)amino]phenyl}-3-phenylquinoxaline-6-carboxamide] | 0.1 to 0.5 µM | 81% | -8% | – | – | – | – |
| O=C(NCCCc1ncc[nH]1)c1ccc2nc(-c3ccc(F)cc3)c(-c3cccs3)nc2c1 [Compound I-340, 2-(4-Fluorophenyl)-N-[3-(1H-imidazol-2-yl)propyl]-3-(2-thienyl)quinoxaline-6-carboxamide] | < 0.1 µM | > 99% | – | – | – | 3% | – |
